According to patent US8507472B2 (priority 2010, dated 2013):
Read-outs that look alike come from different tables or passages of the source.

Legend:
Phytophthora infestans = format: in vivo
Pyrenophora teres = Pyrenophora teres test (barley)/protective; format: in vivo
Method in brief: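 Efficacy, read 7-9 days after spore inoculation, runs from 0% (equal to untreated control) to 100% (no infection). Barley sprayed with water-diluted DMF/emulsifier formulation was inoculated one day later, incubated 48 h at 22° C. and 100% rel. humidity, then held at 20° C. and 80% humidity.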

Botrytis cinerea = assay: Botrytis test (bean)/protective; format: in vivo; details: 100 ppm active compound, protective, evaluation 2 days after inoculation
Description: (§1) Solvents: 24.5 parts by weight of acetone
(§2) • 24.5 parts by weight of dimethylacetamide Emulsifier: 1 part by weight of alkylaryl polyglycol ether
(§3) To produce a suitable preparation of active compound, 1 part by weight of active compound is mixed with the stated amounts of solvents and emulsifier, and the concentrate is diluted with water to the desired concentration.
To test for protective activity, young plants are sprayed with the active compound preparation at the stated application rate. After the spray coating has dried on, 2 small pieces of agar colonized by Botrytis cinerea are placed onto each leaf. The inoculated plants are placed in a dark chamber at about 20° C. and 100% relative atmospheric humidity.
2 days after the inoculation, the size of the infected areas on the leaves is evaluated. 0% means an efficacy which corresponds to that of the control, whereas an efficacy of 100% means that no infection is observed.

Sphaerotheca fuliginea = assay: Sphaerotheca test (cucumber)/protective; format: in vivo
Description: (§4) Solvent: 49 parts by weight of N,N-dimethylformamide
(§5) Emulsifier: 1 part by weight of alkylaryl polyglycol ether
(§6) To produce a suitable preparation of active compounds, 1 part by weight of active compound is mixed with the stated amounts of solvent and emulsifier, and the concentrate is diluted with water to the desired concentration.
To test for protective activity, young cucumber plants are sprayed with the active compound preparation at the stated application rate. 1 day after the treatment, the plants are inoculated with a spore suspension of Sphaerotheca fuliginea. The plants are then placed in a greenhouse at 70% rel. atmospheric humidity and a temperature of 23° C.
(§7) Evaluation is carried out 7 days after the inoculation. 0% means an efficacy which corresponds to that of the control, whereas an efficacy of 100% means that no infection is observed.

Alternaria solani = assay: Alternaria test (tomato)/protective; format: in vivo
Description: as §4, §5
(§8) To produce a suitable preparation of active compound, 1 part by weight of active compound is mixed with the stated amounts of solvent and emulsifier, and the concentrate is diluted with water to the desired concentration.
To test for protective activity, young tomato plants are sprayed with the active compound preparation at the stated application rate. 1 day after the treatment, the plants are inoculated with a spore suspension of Alternaria solani and then remain at 100% rel. humidity and 22° C. for 24 h. The plants then remain at 96% rel. atmospheric humidity and a temperature of 20° C.
as §7

Fusarium graminearum = assay: microbe, parasite or virus in culture; format: cell-based
DON/AcDON production = assay: microbe, parasite or virus in culture; format: cell-based, Fusarium graminearum; details: 7 days at 28° C.
Venturia inaequalis = assay: Venturia test (apple)/protective; format: in vivo; details: 100 ppm active compound, protective, evaluation 10 days after inoculation
Description: Solvents: 24.5 parts by weight of acetone • 24.5 parts by weight of dimethylacetamide Emulsifier: 1 part by weight of alkylaryl polyglycol ether
as §3
(§9) To test for protective activity, young plants are sprayed with the active compound preparation at the stated application rate. After the spray coating has dried on, the plants are inoculated with an aqueous conidia suspension of the apple scab pathogen Venturia inaequalis and then remain in an incubation cabin at about 20° C. and 100% relative atmospheric humidity for 1 day.
(§10) The plants are then placed in a greenhouse at about 21° C. and a relative atmospheric humidity of about 90%.
(§11) Evaluation is carried out 10 days after the inoculation. 0% means an efficacy which corresponds to that of the control, whereas an efficacy of 100% means that no infection is observed.

Uromyces appendiculatus = assay: Uromyces test (bean)/protective; format: in vivo; details: in vivo
Description: as §1, §2, §3
as §9, with “spore” for “conidia”, “bean rust” for “apple scab”, “Uromyces appendiculatus” for “Venturia inaequalis”
as §10, §11

Leptosphaeria nodorum = Leptosphaeria nodorum test (wheat)/protective; format: in vivo
Description: as §4, §5, §6
To test for protective activity, young wheat plants are sprayed with the active compound preparation at the stated application rate. 1 day after the treatment, the plants are inoculated with an aqueous spore suspension of Leptosphaeria nodorum and then remain at 100% rel. atmospheric humidity and 22° C. for 48 h. The plants are then placed in a greenhouse at 90% rel. atmospheric humidity and a temperature of 22° C.
Evaluation is carried out 7-9 days after the inoculation. 0% means an efficacy which corresponds to that of the control, whereas an efficacy of 100% means that no infection is observed.

[1] = log P determination by HPLC retention times (alkan-2-one calibration)
[2] = system: Fusarium nivale (var. majus); assay: Fusarium nivale (var. majus) test (wheat)/protective; format: in vivo; details: 1000 ppm active compound, protective, evaluation 5 days after inoculation
Description: Solvent: 49 parts by weight of N,N-dimethylacetamide
as §5, §8
(§12) To test for protective activity, young plants are sprayed with the active compound preparation at the stated application rate.
After the spray coating has dried on, the plants are sprayed with spores of a spore suspension of Fusarium nivale (var. majus).
The plants are placed in a greenhouse chamber under a translucent incubation hood at 10° C. and 100% relative atmospheric humidity.
Evaluation is carried out 5 days after the inoculation. 0% means an efficacy which corresponds to that of the control, whereas an efficacy of 100% means that no infection is observed.

Puccinia triticina = Puccinia triticina test (wheat)/protective; format: in vivo; details: in vivo
Description: Solvent: 49 parts by weight of […]
as §5, §8, §12
After the spray coating has dried on, the plants are sprayed with spores of a spore suspension of Puccinia triticina. The plants remain in an incubation cabin at 20° C. and 100% relative atmospheric humidity for 48 hours.
The plants are placed in greenhouse at a temperature of about 20° C. and a relative atmospheric humidity of about 80%.
Evaluation is carried out 8 days after the inoculation. 0% means an efficacy which corresponds to that of the control, whereas an efficacy of 100% means that no infection is observed.

[3] = 500 ppm active compound, tomato, protective, evaluation 7 days after inoculation

SMILES	efficacy in % (Phytophthora infestans; in vivo)	efficacy in % (Pyrenophora teres; in vivo)	efficacy in % (Botrytis cinerea)	efficacy in % (Sphaerotheca fuliginea; in vivo)	efficacy in % (Alternaria solani; in vivo)	% inhibition of the fungal growth of Fusarium graminearum at 50 μM (Fusarium graminearum)	% inhibition of DON/AcDON at 50 μM (DON/AcDON production)	efficacy in % (Venturia inaequalis)	efficacy in % (Uromyces appendiculatus)	efficacy in % (Leptosphaeria nodorum; in vivo)	further results
Fc1ccc(-c2nn3c(c2-c2ccncc2)CCC3)cc1 [Example 7]	95%	80%	95%	90%	95%	100%	99%	76%	–	–	–
O=C(Nc1cc(-c2c(-c3ccccc3)nn3c2CCCC3)ccn1)c1ccccc1 [Example 33]	70%	78%	98%	95%	89%	100%	99%	95%	95%	70%	–
CC(C)C(=O)Nc1cc(-c2c(-c3ccc(F)cc3)nn3c2CCOC3)ccn1 [Example 91]	–	95%	100%	100%	90%	–	–	95%	95%	78%	–
Fc1ccc(-c2nn3c(c2-c2ccncc2)CCCC3)cc1 [Example 2, 2-(4-Fluorophenyl)-3-(pyridin-4-yl)-4,5,6,7-tetrahydropyrazolo[1,5-a]pyridine]	–	–	100%	–	–	–	–	95%	–	–	efficacy in % (Phytophthora infestans; [3]): 94%; efficacy in % (Pyrenophora teres; 500 ppm active compound, barley, protective, evaluation 7-9 days after inoculation): 95%; efficacy in % (Sphaerotheca fuliginea; 500 ppm active compound, cucumber, protective, evaluation 7 days after inoculation): 91%; efficacy in % (Alternaria solani; [3]): 94%; inhibition at 50 µM (Fusarium graminearum; Fusarium graminearum, 72 h, read-out: % inhibition of the fungal growth of Fusarium graminearum at 50 μM): 99%; inhibition at 50 µM (DON/AcDON production; Fusarium graminearum, 168 h): 100%; chromatographic logP ([1]; log P(HCOOH), HCOOH, preparation examples in the text): 1.03; chromatographic logP ([1]; log P, values marked [a] in Table 1): 1.03; chromatographic logP ([1]; log P, values marked [b] in Table 1): 2.43; efficacy in % (Leptosphaeria nodorum; 500 ppm active compound, wheat, protective, evaluation 7-9 days after inoculation): 80%
CC(C)CC(=O)Nc1cc(-c2c(-c3ccsc3)nn3c2CCCC3)ccn1 [Example 64]	80%	100%	100%	86%	100%	100%	100%	99%	78%	94%	–
c1ccc(-c2nn3c(c2-c2ccncc2)CCCC3)cc1 [Example 9]	90%	94%	93%	86%	100%	100%	99%	95%	–	95%	–
O=C(Nc1cc(-c2c(-c3cccs3)nn3c2CCCC3)ccn1)C1CC1 [Example 89]	90%	95%	100%	100%	90%	–	–	94%	95%	80%	–
CN(C)C=Nc1cc(-c2c(-c3ccccc3)nn3c2CCCC3)ccn1 [Example 38]	70%	95%	–	–	95%	89%	99%	–	–	–	efficacy in % [2]: 86%
O=CNc1cc(-c2c(-c3ccccc3)nn3c2CCCC3)ccn1 [Example 37]	70%	100%	–	–	95%	93%	99%	–	–	90%	efficacy in % [2]: 86%; efficacy in % (Puccinia triticina): 78%
CC1CCc2c(-c3ccnc(NC(=O)C4CC4)c3)c(-c3ccc(F)cc3)nn21 (stereo not shown) [Example 78]	–	95%	100%	100%	–	–	–	100%	94%	100%	–
O=C(Nc1cc(-c2c(-c3ccccc3)nn3c2CCCC3)ccn1)c1ccsc1 [Example 51]	–	90%	99%	–	95%	41%	100%	74%	86%	–	–
CC(=O)Nc1cc(-c2c(-c3cccs3)nn3c2CCCC3)ccn1 [Example 87]	90%	90%	100%	95%	80%	–	–	–	93%	70%	–
COC1CCCn2nc(-c3ccc(F)cc3)c(-c3ccncc3)c21 (stereo not shown) [Example 85]	90%	100%	100%	85%	–	–	–	–	85%	75%	–
CCC(=O)Nc1cc(-c2c(-c3ccc(F)cc3)nn3c2CCOC3(C)C)ccn1 [Example 86]	–	100%	100%	100%	90%	–	–	95%	95%	70%	–
CC(C)Nc1cc(-c2c(-c3ccc(F)cc3)nn3c2CCC3)ccn1 [Example 52]	95%	80%	78%	–	90%	19%	99%	94%	–	–	–
